Measurements taken from patent publication US9931347B2, “Pharmaceutical compound” (IOmet Pharma Ltd., priority 2013, dated 2018).

Assays:
[1] = biological target: T1, IDO (SKOV3 human ovarian adenocarcinoma cells, IFN-γ induced) (Homo sapiens, UniProt P14902); assay: SKOV3 Kynurenine cell based assay; settings: IDO induced by 500 ng/ml IFN-γ, 500 μM L-tryptophan, 48 hours
T1 construct: IDO expression was induced in the SKOV3 cells by the addition of 500 ng/ml IFN-γ; endogenous in cells; host or cells: SKOV3 human ovarian adenocarcinoma cells, induced with IFN-γ
T1 sequence (P14902 whole entry): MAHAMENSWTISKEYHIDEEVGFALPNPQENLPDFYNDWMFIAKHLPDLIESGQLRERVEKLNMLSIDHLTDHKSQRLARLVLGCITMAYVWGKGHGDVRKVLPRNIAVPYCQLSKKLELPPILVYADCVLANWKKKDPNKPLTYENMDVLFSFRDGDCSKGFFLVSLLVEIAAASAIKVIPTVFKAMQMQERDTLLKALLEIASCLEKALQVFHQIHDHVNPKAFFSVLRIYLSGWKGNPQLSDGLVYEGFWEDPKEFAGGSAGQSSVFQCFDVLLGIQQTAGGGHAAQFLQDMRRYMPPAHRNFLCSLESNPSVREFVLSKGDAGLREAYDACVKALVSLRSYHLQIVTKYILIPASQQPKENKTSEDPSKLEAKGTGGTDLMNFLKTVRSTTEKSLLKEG
Description: (§1) Exemplary compounds of the invention were prepared, and tested to determine their effect as TDO and/or IDO inhibitors. Two different assays were employed: 1. a cell-based assay for detecting the effect of test compounds on kynurenine production in two different cancer cell types. This assay utilised cancer cells which expressed either TDO or IDO and as such was used as a means of testing compound activity at these two enzymes in a cell-based context. 2. a TDO and IDO biochemical coupled assay which utilised recombinantly produced and purified TDO and IDO enzymes in combination with the enzyme formamidase. This coupled enzyme system allowed conversion of N-formylkynurenine produced by TDO or IDO activity to kynurenine which was then quantified by fluorescence following addition of Erhlich's Reagent The protocols for these are set out below.
(§2) A172 (human glioblastoma) and SKOV3 (human ovarian adenocarcinoma) cells were seeded in a 96 well plate at 30,000 or 40,000 cells per well respectively in phenol red-free RPMI supplemented with 10% FCS, 2 mM L-glutamine and 500 μM L-tryptophan. IDO expression was induced in the SKOV3 cells by the addition of 500 ng/ml IFN-γ. Cells were incubated at 37° C. with or without the addition of test compound. After 48 hours, the cells were removed by centrifugation and Erhlich's reagent was added to the supernatant.

[2] = biological target: T2, TDO (A172 human glioblastoma cells) (Homo sapiens, UniProt P48775); assay: A172 Kynurenine cell based assay; settings: 500 μM L-tryptophan, 48 hours, kynurenine by Erhlich's reagent
T2 construct: This assay utilised cancer cells which expressed either TDO or IDO; endogenous in cells; host or cells: A172 human glioblastoma cells
T2 sequence (P48775 whole entry): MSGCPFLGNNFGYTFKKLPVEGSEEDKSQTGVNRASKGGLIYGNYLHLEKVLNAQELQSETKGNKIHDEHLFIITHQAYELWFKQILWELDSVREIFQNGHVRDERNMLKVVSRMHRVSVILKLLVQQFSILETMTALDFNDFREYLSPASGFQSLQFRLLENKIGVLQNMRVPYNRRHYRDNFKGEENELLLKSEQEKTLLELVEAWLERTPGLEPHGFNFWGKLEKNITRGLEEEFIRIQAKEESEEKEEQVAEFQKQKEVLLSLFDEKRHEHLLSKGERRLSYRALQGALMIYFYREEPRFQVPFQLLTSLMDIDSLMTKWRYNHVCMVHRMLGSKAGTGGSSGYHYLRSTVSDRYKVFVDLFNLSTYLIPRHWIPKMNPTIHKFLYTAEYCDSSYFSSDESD
Description: as §1
as §2, with “supernatant. The Erhlich's reagent was incubated for 5 minutes before the absorbance was read at 490 nm.” for “supernatant.”

With `CS(=O)(=O)N1CCC(C2C(=O)Nc3ccc(C(F)(F)F)cc32)CC1` (stereo not drawn) [Compound 310] the “SKOV3 Kynurenine cell based assay pIC50” value [1] was “+ (+ = pIC50 4.00-4.99)”.
With `CS(=O)(=O)N1CCC(c2c[nH]c3cc(C(F)(F)F)ccc23)CC1` [Compound 234] the “A172 Kynurenine cell based assay pIC50” value [2] was “+ (+ = pIC50 4.00-4.99)” and the “SKOV3 Kynurenine cell based assay pIC50” value [1] was “+ (+ = pIC50 4.00-4.99)”.
In the case of `CCN(CC)C(=O)N1CCC(c2c[nH]c3ccccc23)CC1` [Compound 211], the “SKOV3 Kynurenine cell based assay pIC50” value [1] is reported as “+ (+ = pIC50 4.00-4.99)”.
For `CS(=O)(=O)N1CCN(c2c[nH]c3ccccc23)CC1CN` (stereo not drawn) [Compound 318], the “A172 Kynurenine cell based assay pIC50” value [2] was “++ (++ = pIC50 5.00-5.99)”.
For `O=C(c1cocn1)N1CCC(c2c[nH]c3cc(F)ccc23)CC1` [Compound 274], the “A172 Kynurenine cell based assay pIC50” value [2] was “+ (+ = pIC50 4.00-4.99)”.
In the case of `O=C(CC1CC1)N1CCC(c2c[nH]c3cc(F)ccc23)CC1` [Compound 284], the “A172 Kynurenine cell based assay pIC50” value [2] is reported as “+ (+ = pIC50 4.00-4.99)” and the “SKOV3 Kynurenine cell based assay pIC50” value [1] is reported as “+ (+ = pIC50 4.00-4.99)”.
For `COCCNS(=O)(=O)N1CCC(c2c[nH]c3ccccc23)CC1` [Compound 219], the “A172 Kynurenine cell based assay pIC50” value [2] was “+ (+ = pIC50 4.00-4.99)”.
For `CC(=O)N1CC=C(c2c[nH]c3c(Cl)cccc23)CC1` [Compound 196], the “A172 Kynurenine cell based assay pIC50” value [2] was “+ (+ = pIC50 4.00-4.99)” and the “SKOV3 Kynurenine cell based assay pIC50” value [1] was “+ (+ = pIC50 4.00-4.99)”.
`Fc1ccc2c(C3CCN(c4cccnc4)CC3)c[nH]c2c1` [Compound 309] was tested, and the “A172 Kynurenine cell based assay pIC50” value [2] was “++ (++ = pIC50 5.00-5.99)”.
In the case of `CC(=O)N1CCC(c2c[nH]c3cc(OCc4ccccc4)ccc23)CC1` [Compound 221], the “A172 Kynurenine cell based assay pIC50” value [2] is reported as “+ (+ = pIC50 4.00-4.99)” and the “SKOV3 Kynurenine cell based assay pIC50” value [1] is reported as “+ (+ = pIC50 4.00-4.99)”.
With `Cc1ccc2c(C3CCN(S(C)(=O)=O)CC3)c[nH]c2c1` [Compound 207] the “A172 Kynurenine cell based assay pIC50” value [2] was “+ (+ = pIC50 4.00-4.99)” and the “SKOV3 Kynurenine cell based assay pIC50” value [1] was “+ (+ = pIC50 4.00-4.99)”.
`CCCc1cc(C(=O)N2CCC(c3c[nH]c4cc(F)ccc34)CC2)[nH]n1` [Compound 277] was tested, and the “A172 Kynurenine cell based assay pIC50” value [2] was “+ (+ = pIC50 4.00-4.99)” and the “SKOV3 Kynurenine cell based assay pIC50” value [1] was “+ (+ = pIC50 4.00-4.99)”.
For `CS(=O)(=O)N1CCC(=C2C(=O)Nc3ccc(Br)cc32)CC1` [Compound 305], the “SKOV3 Kynurenine cell based assay pIC50” value [1] was “+ (+ = pIC50 4.00-4.99)”.
In the case of `CC(=O)N1CC=C(c2c[nH]c3cc(C#N)ccc23)CC1` [Compound 214], the “SKOV3 Kynurenine cell based assay pIC50” value [1] is reported as “+ (+ = pIC50 4.00-4.99)”.
`CC1(C)CN(c2c[nH]c3ccccc23)CCN1S(C)(=O)=O` [Compound 191] was tested, and the “A172 Kynurenine cell based assay pIC50” value [2] was “++ (++ = pIC50 5.00-5.99)” and the “SKOV3 Kynurenine cell based assay pIC50” value [1] was “+− (+− = pIC50 <4.00)”.
For `O=S(=O)(Cc1ccccc1)N1CCC(c2c[nH]c3cc(F)ccc23)CC1` [Compound 293], the “A172 Kynurenine cell based assay pIC50” value [2] was “++ (++ = pIC50 5.00-5.99)” and the “SKOV3 Kynurenine cell based assay pIC50” value [1] was “+ (+ = pIC50 4.00-4.99)”.
`O=C(C1CCOC1)N1CCC(c2c[nH]c3cc(F)ccc23)CC1` (stereo not drawn) [Compound 262] was tested, and the “A172 Kynurenine cell based assay pIC50” value [2] was “+ (+ = pIC50 4.00-4.99)”.
For `CC(=O)N1CCC(c2c(C)[nH]c3ccccc23)CC1` [Compound 195], the “SKOV3 Kynurenine cell based assay pIC50” value [1] was “+ (+ = pIC50 4.00-4.99)”.
For `O=C(c1cnccn1)N1CCC(c2c[nH]c3cc(F)ccc23)CC1` [Compound 261], the “A172 Kynurenine cell based assay pIC50” value [2] was “+ (+ = pIC50 4.00-4.99)”.
With `CC(=O)N1CC=C(c2c[nH]c3cc(F)cc(F)c23)CC1` [Compound 201] the “A172 Kynurenine cell based assay pIC50” value [2] was “++ (++ = pIC50 5.00-5.99)”.
With `COCCNC(=O)N1CCC(c2c[nH]c3ccccc23)CC1` [Compound 212] the “A172 Kynurenine cell based assay pIC50” value [2] was “+ (+ = pIC50 4.00-4.99)”.
In the case of `O=C1NCC2CN(c3c[nH]c4ccccc34)CCN12` (stereo not drawn) [Compound 307], the “A172 Kynurenine cell based assay pIC50” value [2] is reported as “++ (++ = pIC50 5.00-5.99)”.
`CS(=O)(=O)N1CCC(C2C(=O)Nc3ccc(Cl)cc32)CC1` (stereo not drawn) [Compound 294] was tested, and the “SKOV3 Kynurenine cell based assay pIC50” value [1] was “++ (++ = pIC50 5.00-5.99)”.
`O=S(=O)(N1CCOCC1)N1CCC(c2c[nH]c3ccccc23)CC1` [Compound 220] was tested, and the “A172 Kynurenine cell based assay pIC50” value [2] was “+ (+ = pIC50 4.00-4.99)”.
With `O=C(c1ccno1)N1CCC(c2c[nH]c3cc(F)ccc23)CC1` [Compound 271] the “A172 Kynurenine cell based assay pIC50” value [2] was “+ (+ = pIC50 4.00-4.99)”.
`CS(=O)(=O)N1CC=C(c2c[nH]c3cc(C(F)(F)F)ccc23)CC1` [Compound 224] was tested, and the “A172 Kynurenine cell based assay pIC50” value [2] was “+ (+ = pIC50 4.00-4.99)”.
With `COCC(=O)N1CCC(c2c[nH]c3cc(F)ccc23)CC1` [Compound 264] the “A172 Kynurenine cell based assay pIC50” value [2] was “++ (++ = pIC50 5.00-5.99)”.
For `CC(C)C(=O)N1CCC(C(=O)N2CCC(c3c[nH]c4cc(F)ccc34)CC2)CC1` [Compound 267], the “A172 Kynurenine cell based assay pIC50” value [2] was “+ (+ = pIC50 4.00-4.99)”.
